# In patent US12071415B2, “Carbon monoxide prodrugs for the treatment of medical disorders” (Georgia State University Research Foundation, Inc., priority 2018, dated 2024):
# Assays:
# [1] = pKa of the conjugate acid of the leaving group; no measurement described; cited from earlier work
# [2] = NMR CO release experiments for formyl compounds; format: physicochemical; conditions: deuterated PBS or 20% DMSO-d6 in deuterated PBS; determined indirectly from ratio of formic acid formed
# Protocol: Compounds 1-4 were tested for their CO release by NMR. Each compound was placed in deuterated PBS or 20% DMSO-d6 in deuterated PBS. CO release yield was indirectly determined by calculating the ratio of formic acid formed as a by-product of the competing hydrolysis reaction.
# [3] = COP-1 fluorescent probe evaluation of CO release; format: physicochemical
# Protocol: COP-1, a CO probe that is commonly employed in the literature to detect CO was used to evaluate the ability of different oxalyl-based compounds to release CO under aqueous solution at room temperature. Chloride was replaced with various leaving groups having different pKa values to survey the effect of pKa on CO release.
# To a solution of the CO probe COP-1 (0.5 μM) in 3% DMSO in PBS, a solution of 1,2-bis(1,1-dioxido-3-oxobenzo[d]isothiazol-2(3H)-yl)ethane-1,2-dione in DMSO was added to form a 100 μM final solution concentration. The resulting mixture was incubated at 37° C., and the fluorescence emission intensity was recorded at different time points from […] with an excitation wavelength of 475 nm.
# deoxy-myoglobin = test: Two-compartment CO-myoglobin (Mb-CO) assay; format: physicochemical; conditions: DMSO/PBS, 37° C., 25 minutes
# [4] = HPLC kinetics of decomposition; format: physicochemical; conditions: 40% acetonitrile in PBS; 60% PBS (40% acetonitrile), 37° C.
# Protocol: Compound 5 was tested for its rate of decomposition under physiological conditions. The followed samples were injected into the HPLC instrument i) saccharin (200 μM) dissolved in 40% acetonitrile in PBS; and b) incubated solution of the CO-releasing molecule Compound 5 dissolved in 40% acetonitrile in PBS at 37° C. at different time points. A 200 μL aliquot of incubated sample was placed inside a 0.5 mL vial followed by dilution with 200 μL of acetonitrile. The study was performed using the Shimadzu Prominence UFLC with a reversed-phase analytical column (Waters C18 3.5 μM, 4.6×100 mm) at 25° C. The flow rate was set at 1 mL/min. Gradient elution using acetonitrile and deionized water with 0.05% TFA was used to elute out the components of the sample. Elution conditions: 0-7 min 50% to 70% acetonitrile; injection volume 10 μL; detection wavelength of 254 and 280 nm. Experiments were done in triplicate.
# [5] = RP-HPLC stability study (solid and acetonitrile solution); format: physicochemical; conditions: exposed to ambient light and temperature
# Excerpt: These prodrugs are also stable as a solution of acetonitrile stored at room temperature for at least seven days.
# [6] = CO release profile of the activated charcoal formulation (GC headspace); format: physicochemical; conditions: 100 mg method A formulation, 3 mL PBS, 37° C.
# Protocol: Activated charcoal comprising Compound 5 (100 mg) that was formulated by method A was put into a GC-headspace vial. PBS (3 mL) preheated to 37° C. was added and the vial was sealed and incubated at 37° C. At different time points, 250 μL of the headspace gas was withdrawn and injected to a gas chromatograph (Agilent 7820) equipped with a RESTEK packed molecular sieve column and a TCD detector. The CO release kinetic and yield were plotted (FIG. 23) based on the CO peak area and calibration curve.
# [7] = LC-MS determination of oxalic acid (CO vs non-CO producing pathways); format: physicochemical; conditions: from a 200-μM sample
# Protocol: LC-MS Studies: CO Production Vs Non-CO Producing Pathways The LCMS analysis was performed on an Agilent 1200 HPLC and 3200 API triple quadrupole mass spectrometer with electrospray ionization source in a negative mode. Selected ion mode was used for the detection of ions at m/z 182 for saccharin and m/z 89 for oxalic acid. A 5 uL of sample solution (compound 5) was directly delivered to the mass spectrometer ionization source with an Agilent autosampler and HPLC by mixing with 1% ACN in water mobile phase at 200 uL/min flow rate. No column was used. Three minutes were recorded and the peak area was integrated and the peak are ratio of PA (Oxalic acid)/PA(Saccharin) vs Concentration ratio (C(Saccharine)/C(Oxalic acid) was plotted as standard curve. The linear regression equation was generated for the calculation of the ratio of unknowns.
# [8] = Quantitative CO analysis by GC with thermal conductivity detector; format: physicochemical; conditions: 37° C.; for CO release yield: 4 to 1 acetonitrile: water, 1 h (FIG. 10); for CO yield, effect of pH: pH 1, pH 3 and pH 7.4 buffers in ACN:H2O (4:1), 1 hour (FIG. 11, 12)
# Protocol: An Agilent […] GC System equipped with a thermal conductivity detector was used to detect and quantify CO release yield of the CO prodrugs. Using a gas tight syringe, specific volumes of the headspace of 20-mL headspace vials were sampled and transferred to the injector port maintained at 125° C. Helium was used as the carrier gas with a flow rate of 30 mL/min. Gaseous components of the headspace were separated by passing through a packed column with 60/80 Carboxen-1000 matrix support, […] (4.6 m)×1⁄8 in.×2.1 mm (Supelco). The column was heated 35° C. for 5 min then 225° C. at 20° C./min while the detector was held at 125° C.
# HeLa cells = test: CCK-8 cytotoxicity assay; format: cell-based; conditions: 0-100 μM, 1% DMSO in DMEM, 24 hours
# Protocol: For the CCK-8 assay, HeLa cells were cultured in DMEM (Dulbecco's Modified Eagle's Medium) supplements with 10% fetal bovine serum (MidSci; SO1520HI) and 1% penicillin-streptomycin (Sigma-Aldrich; P4333) at 37° C. with 5% C02. Fresh medium was replenished every other day. The cells were treated with the compounds (0-100 μM) using 1% DMSO in DMEM for 24 hours.
# [9] = Saturation adsorption assay on activated charcoal; format: physicochemical; conditions: in 10 mg activated charcoal, ACN, 25° C.
# Protocol: A saturation adsorption assay was used to determine the adsorption capacity of the Compound 5 on activated charcoal. Compound 5 was dissolved in anhydrous ACN to form calibration samples with a concentration range from 0.019 to 0.3 mg/ml. The absorbance at 280 nm was measured with a UV-Vis spectrometer and plotted against the concentration to give the calibration curve (FIG. 21).
# At room temperature (25° C.), 1-6 mg Compound 5 was mixed with 10 mg of activated charcoal and then 0.5 ml ACN was added. The mixture was shaken for 1 h followed by centrifuging at 12000×g for 5 min and the supernatant was diluted by 50 folds with ACN and measured with UV/Vis spectrometer at 280 nm to get the Compound 5 concentration in the supernatant. Adsorbed mass of Compound 5 was calculated by Formula I: Adsorbed mass=(Initial mass)−0.5*(supernatant concentration) (Formula I) Adsorbed mass=Y0+(Plateau-Y0)*(1−e^kX) (Formula II)
# [10] = system: LPS induced TNF-α production in RAW264.7 cells; test: Anti-inflammatory assay: TNF-α ELISA in LPS-stimulated RAW264.7 cell culture; format: cell-based; conditions: total 5 hour pretreatment (Compound 5 medium changed every 1 hour 5 times; Compound 7 single addition)
# Protocol: The effect of the compounds of the present invention on CO-associated anti-inflammation activity was studied. Pro-inflammatory cytokine TNF-α in RAW264.7 cell culture upon stimulation by lipid polysaccharide (LPS) from E. coli was tested with ELSA assay. […] Due to the fast release kinetics of Compound 5, a repeated dosage protocol was used. Indicated concentration of Compound 5 was added to the culture medium right before addition to the cell and the fresh-made drug loaded culture medium was changed every 1 hour 5 times. Compound 7 has a longer half-life and therefore a single addition of the drug can fulfill the anti-inflammation effect. A Total 5 hour pretreatment was used throughout the experiments and the reported CO prodrug shown below (Ji, X., et al. Angew Chem Int Ed Engl 2016, 55 (51), 15846-15851) was used as the positive control: […]
smiles,measurement,setting,value
O=C(Oc1c(Cl)cc(Cl)cc1Cl)C(=O)Oc1c(Cl)cc(Cl)cc1Cl,pKa,[1],6.23
O=C(C(=O)N1C(=O)c2ccccc2C1=O)N1C(=O)c2ccccc2C1=O,pKa,[1],8.3
O=C(C(=O)n1ccnc1)n1ccnc1,pKa,[1],14.5
"O=CN1C(=O)c2ccccc2S1(=O)=O [Compound 1, 3-Oxobenzo[d]isothiazole-2(3H)-carbaldehyde 1,1-dioxide]",CO Release Yield (%),[2],20%
"Cc1nn(C=O)c(=S)s1 [Compound 2, 5-Methyl-2-thioxo-1,3,4-thiadiazole-3(2H)-carbaldehyde]",CO Release Yield (%),[2],33%
same,increase in fluorescence with the COP-1 probe,[3]; after 10 minutes of incubation (FIG. 4),2.3 fold
same,formation of CO-myoglobin (UV-Vis spectral signature),deoxy-myoglobin,showed the characteristic spectral signature for the formation of CO-myoglobin
"O=Cn1ccccc1=O [Compound 3, 2-Oxopyridine-1(2H)-carbaldehyde]",CO Release Yield (%),[2],20%
"C[N+](C)=c1ccn(C=O)cc1.[Br-] [Compound 4, N-(1-Formylpyridin-4(1H)-ylidene)-N-methylmethanaminium Bromide]",CO Release Yield (%),[2],34%
"O=C(C(=O)N1C(=O)c2ccccc2S1(=O)=O)N1C(=O)c2ccccc2S1(=O)=O [Compound 5, 1,2-Bis(1,1-dioxido-3-oxobenzo[d]isothiazol-2(3H)-yl)ethane-1,2-dione]",half-life,[4],1.28 ± 0.03 min
same,stable as a solid,[5],at least 24 days
same,total CO release yield,[6],81%
same,CO production estimated from oxalic acid,[7],about 75%
same,oxalic acid produced,[7],47 µM
same,CO release yield,[8],76%±6
same,"CO yield, effect of pH",[8],60% to 30%
same,toxicity to HeLa cells (cell survival),HeLa cells,no toxicity to HeLa cells up to a 100 μM concentration
same,maximum adsorption amount on activated charcoal (plateau),[9],1.73 mg
same,increase in fluorescence intensity with the COP-1 probe,"[3]; after 3 h (FIG. 5), 100 μM compound, 0.5 μM COP-1, 3% DMSO in PBS, 37° C.",4 fold
same,formation of CO-myoglobin (UV-Vis spectral signature),deoxy-myoglobin,showed the characteristic spectral signature for the formation of CO-myoglobin
same,LPS induced TNF-α production,[10],inhibit LPS induced TNF-α production in a dose-dependent manner
"CC1=CC(=O)N(C(=O)C(=O)N2C(=O)C=C(C)OS2(=O)=O)S(=O)(=O)O1 [Compound 7, 1,2-Bis(6-methyl-2,2-dioxido-4-oxo-1,2,3-oxathiazin-3(4H)-yl)ethane-1,2-dione]",half-life,[4],9.5 ± 0.1 min
same,CO release yield,[8],92%±3
same,"CO yield, effect of pH",[8],around 90%
same,formation of CO-myoglobin (UV-Vis spectral signature),deoxy-myoglobin,showed the characteristic spectral signature for the formation of CO-myoglobin
same,LPS induced TNF-α production,[10],inhibit LPS induced TNF-α production in a dose-dependent manner
"CC(C)(C)OC(=O)C(=O)N1C(=O)c2ccccc2S1(=O)=O [Compound 8, tert-Butyl 2-(1,1-Dioxido-3-oxobenzo[d]isothiazol-2(3H)-yl)-2-oxoacetate]",CO release yield,[8],No CO nor CO2 were detected
same,CO2 yield,"[8]; ACN:H2O (4:1), 1 hour (FIG. 10)",No CO nor CO2 were detected
"CS(=O)(=O)N(C(=O)C(=O)N(C(=O)c1ccccc1)S(C)(=O)=O)C(=O)c1ccccc1 [Compound 9, N^1,N^2-Dibenzoyl-N^1,N^2-bis(methylsulfonyl)oxalamide]",CO release yield,[8],no CO was detected
O=C(C(=O)N1C(=O)c2ccccc2S1(=O)=O)N1C(=O)c2ccccc2S1(=O)=O [drawing 150],pKa,[1],1.6
